In this assay the target is Glycogen synthase kinase-3 beta (Homo sapiens, UniProt P49841). Description: concentration-response blocking of human GSK3B – biochemical, luminescence, cell-free homogeneous, retest, dose response (AID 434954).
Chain of Glycogen synthase kinase-3 beta (P49841 whole entry): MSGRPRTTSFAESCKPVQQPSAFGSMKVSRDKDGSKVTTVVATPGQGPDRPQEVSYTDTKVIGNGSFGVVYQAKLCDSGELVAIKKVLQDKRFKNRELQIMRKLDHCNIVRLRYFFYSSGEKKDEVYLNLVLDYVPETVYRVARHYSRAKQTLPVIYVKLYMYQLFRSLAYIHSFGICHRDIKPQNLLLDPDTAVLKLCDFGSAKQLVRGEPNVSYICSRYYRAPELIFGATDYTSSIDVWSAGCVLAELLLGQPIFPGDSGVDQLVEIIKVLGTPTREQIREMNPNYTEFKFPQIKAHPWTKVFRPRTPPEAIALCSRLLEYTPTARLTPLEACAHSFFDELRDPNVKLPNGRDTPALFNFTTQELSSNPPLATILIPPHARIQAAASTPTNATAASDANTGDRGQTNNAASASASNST
For orientation: EC50 means the concentration that produces a half-maximal response. Low values mean higher potency in that assay, high ones lower potency in that assay. `CCOC(=O)c1c(C)oc2c(CC(=O)c3ccccc3)c(Cl)c(O)c(O)c12` [ethyl 6-chloro-4,5-dihydroxy-2-methyl-7-phenacyl-1-benzofuran-3-carboxylate] came in with an EC50 above 300 µM.

Compound `CC1Cc2cc(-c3csc(NC(=O)Cc4ccccc4)n3)ccc2N1S(C)(=O)=O` (centres undefined) [N-[4-(1-Methanesulfonyl-2-methyl-2,3-dihydro-1H-indol-5-yl)-thiazol-2-yl]-2-phenyl-acetamide] registered an EC50 above 300 µM.

`Cc1ccc(/C=C2/Sc3ccc(C(=O)NCCN4CCOCC4)cc3NC2=O)cc1` had an EC50 above 300 µM.

In turn, `CCc1cc(C(=O)c2ccc(OC)cc2)c(NC(=O)CN2CCN(C)CC2)s1` [N-[5-ethyl-3-(4-methoxyphenyl)carbonyl-thiophen-2-yl]-2-(4-methylpiperazin-1-yl)ethanamide] had an EC50 above 300 µM.

The compound `CC1(C)Oc2ccc(C(=O)N3CCOCC3)cc2N(CC(=O)N2CCOCC2)C1=O` returned an EC50 above 300 µM.

`CC[n+]1c(/C=C/N(C)c2ccccc2)oc2ccc(F)cc21` had an EC50 above 300 µM.

Turning to `CCN(CC)Cc1c(C(=O)NN=Cc2cccc3ccccc23)nnn1-c1nonc1N` [1-(4-amino-1,2,5-oxadiazol-3-yl)-5-(diethylaminomethyl)-N-(1-naphthalenylmethylideneamino)-4-triazolecarboxamide], the EC50 is above 300 µM.

`Nc1nc(Nc2ccccc2)nc(NCc2ccco2)c1[N+](=O)[O-]` [4-N-(furan-2-ylmethyl)-5-nitro-2-N-phenylpyrimidine-2,4,6-triamine] returned an EC50 of 4.89 µM.

Consider `COC1=CC(CN=Nc2ccc([N+](=O)[O-])cn2)C=C(OC)C1=O` [MLS001173549], for which the EC50 worked out at 5.41 µM.

For the compound `COc1ccc(CC(=O)OCC(=O)Nc2ccc(Cl)cn2)cc1` [MLS000566076], the EC50 amounted to 107 µM.

`COc1cccc2c1cc1c(=O)n(CC(=O)NCc3ccccn3)nc(C)n12` [2-(9-methoxy-4-methyl-1-oxo-[1,2,4]triazino[4,5-a]indol-2-yl)-N-(pyridin-2-ylmethyl)acetamide]: the EC50 is above 300 µM.

The compound `COCc1c(C(=O)NN=Cc2ccncc2)nnn1-c1nonc1N` [MLS001194772] came in with an EC50 of 40.1 µM. That is a double-digit micromolar value.

On to `Cc1ccc2c(CN3CCN(Cc4ccccc4)CC3)cc(=O)oc2c1C` [SMR000543581], for which the EC50 was above 300 µM.

`CCOC(=O)CSc1ccc2nnc(-c3cccs3)n2n1` [ethyl 2-[(3-thiophen-2-yl-[1,2,4]triazolo[4,3-b]pyridazin-6-yl)sulfanyl]ethanoate] had an EC50 of 4.1 µM.

Compound `CCCc1c(NC(=O)Nc2ccc(F)cc2)cnn1-c1ccccc1` [1-(4-fluorophenyl)-3-(1-phenyl-5-propylpyrazol-4-yl)urea] yielded an EC50 above 300 µM.

Compound `Nc1nonc1-n1nnc(C(=O)NN=Cc2cccc(F)c2)c1CN1CCCCCC1` [1-(4-amino-1,2,5-oxadiazol-3-yl)-5-(1-azepanylmethyl)-N-[(3-fluorophenyl)methylideneamino]-4-triazolecarboxamide] showed an EC50 of 2.56 µM.

`COC(=O)CCC(=O)Oc1ccc(OC(=O)CCC(=O)OC)cc1` [4-O-[4-(4-methoxy-4-oxobutanoyl)oxyphenyl] 1-O-methyl butanedioate] had an EC50 above 300 µM.

The compound `N#CCCn1cc(CN=O)c(-c2ccc(-c3ccccc3)cc2)n1` [3-[4-(hydroxyiminomethyl)-3-(4-phenylphenyl)pyrazol-1-yl]propanenitrile] yielded an EC50 above 300 µM.

With `Cc1ccc(-c2n[nH]c(=S)n2N=Cc2ccncc2)cc1` [SMR000269897], the EC50 stood at 11.5 µM.

Turning to `Cc1nn(CC(=O)N2CCN(c3ccccn3)CC2)c(=O)c2cc3sccc3n12` [1-methyl-3-[2-oxidanylidene-2-(4-pyridin-2-ylpiperazin-1-yl)ethyl]thieno[3,4]pyrrolo[3,5-c][1,2,4]triazin-4-one], the EC50 was above 300 µM.

On to `COc1ccc(-c2nn(-c3ccccc3)cc2C=Nn2cnnc2)cc1OC` [SMR000066046], for which the EC50 is above 300 µM.

As to `CCN(CC)C(=O)COc1cc(C)cc2oc(=O)cc(-c3ccccc3)c12` [N,N-diethyl-2-(7-methyl-2-oxo-4-phenylchromen-5-yl)oxyacetamide], the EC50 is above 300 µM.

In turn, `O=C(Cn1c2ccccc2c(=O)c2ccccc21)Nc1ccccc1F` [N-(2-fluorophenyl)-2-(9-oxoacridin-10-yl)acetamide] came in with an EC50 above 300 µM.

As for `O=C(c1ccncc1)N1CCN(C(=O)c2ccco2)CC1` [MLS000066790], the half-maximal effective concentration (EC50) was above 300 µM.

Compound `COc1ccccc1/C=C/C=C1\Oc2c(ccc(O)c2CN(C)C)C1=O` [(2Z)-7-[(dimethylamino)methyl]-6-hydroxy-2-[(E)-3-(2-methoxyphenyl)prop-2-enylidene]-1-benzofuran-3-one] had an EC50 of 33.8 µM.

Turning to `O=C1Nc2ccc([N+](=O)[O-])cc2C1=NNC1CS(=O)(=O)CC1O` (centres undefined) [SMR000368316], the EC50 was 23 µM.

In the case of `Nc1nc(NCC2CCCO2)nc(Nc2ccccc2F)c1[N+](=O)[O-]` (centres undefined) [MLS000769541], the 50% effective concentration (EC50) stood at 2.33 µM.

Turning to `CN(C)S(=O)(=O)c1cc(NC(=O)CN2CCN(c3ccc(O)cc3)CC2)ccc1Cl` [MLS000774170], the half-maximal effective concentration (EC50) was above 300 µM.

Consider `O=C(Cc1ccc(Br)cc1)Nc1ncc([N+](=O)[O-])s1` [SMR000429978], for which the EC50 came out at 4.3 µM. In other words, the single-digit micromolar range.

Compound `Cc1cccc(Nc2nc(N)c([N+](=O)[O-])c(N3CCOCC3)n2)c1` [6-Morpholin-4-yl-5-nitro-N*2*-m-tolyl-pyrimidine-2,4-diamine] returned an EC50 above 300 µM.

`c1ccc(Cn2c(-c3ccco3)nc3nc4ccccc4nc32)cc1` [3-benzyl-2-(furan-2-yl)imidazo[4,5-b]quinoxaline] had an EC50 above 300 µM.

`O=C(Nc1cccc(-c2cnc3ccccc3n2)c1)c1ccccc1` [N-[3-(2-quinoxalinyl)phenyl]benzamide] registered an EC50 above 300 µM.

As for `NC(=NNC(=O)c1ccc(Cl)cc1)c1cnccn1` [N-[(Z)-[azanyl(pyrazin-2-yl)methylidene]amino]-4-chloranyl-benzamide], the EC50 is above 300 µM.

Compound `O=C(NCCCN1CCN(Cc2ccccc2)CC1)C1CCN(S(=O)(=O)N2CCCC2)CC1` [N-[3-[4-(phenylmethyl)-1-piperazinyl]propyl]-1-(1-pyrrolidinylsulfonyl)-4-piperidinecarboxamide] displayed an EC50 above 300 µM.

For the compound `Cc1ccc2nc3c(cc2c1)c(NC(=O)c1ccco1)nn3CC(C)C` [Furan-2-carboxylic acid (1-isobutyl-6-methyl-1H-pyrazolo[3,4-b]quinolin-3-yl)-amide], the EC50 is above 300 µM.

For the compound `Nc1ccc(O)c2c(=O)cc(-c3ccccc3Cl)oc12` [MLS000518334], the midpoint of the response, the EC50, lay at 21.5 µM.

On to `COC(=O)CSc1ccc2nnc(-c3ccc(OC)c(OC)c3)n2n1`, for which the EC50 is above 300 µM.

The compound `COc1ccccc1-c1ccc(=O)n(CC(=O)NCc2ccco2)n1` [N-(furan-2-ylmethyl)-2-[3-(2-methoxyphenyl)-6-oxidanylidene-pyridazin-1-yl]ethanamide] yielded an EC50 above 300 µM.

As to `COc1cccc(CN=Nc2cc(Cl)nc(C)n2)c1O` [SMR000274053], the EC50 was above 300 µM.

Consider `NS(=O)(=O)c1ccc(Nc2nc(-c3ccc(O)cc3O)cs2)cc1` [4-(4-(2,4-dihydroxyphenyl)thiazol-2-ylamino)benzenesulfonamide], for which the EC50 was 5.73 µM.

For the compound `NCCCNc1nc(N)c([N+](=O)[O-])c(NC2CCCCC2)n1` [N2-(3-aminopropyl)-N4-cyclohexyl-5-nitropyrimidine-2,4,6-triamine], the EC50 was 3.06 µM.

On to `CC(=O)N1CCc2c(sc(NC(=O)Cc3ccc(F)cc3)c2C(N)=O)C1` [6-acetyl-2-[[2-(4-fluorophenyl)-1-oxoethyl]amino]-5,7-dihydro-4H-thieno[2,3-c]pyridine-3-carboxamide], for which the EC50 is 47.2 µM.

`CCCCOc1ccc(C=NNC(=O)c2nnn(-c3nonc3N)c2CN2CCCCCC2)cc1` [1-(4-amino-1,2,5-oxadiazol-3-yl)-5-(1-azepanylmethyl)-N-[(4-butoxyphenyl)methylideneamino]-4-triazolecarboxamide] yielded an EC50 of 55.3 µM.

For `Cc1ccc(-n2c(C)c([N+](=O)[O-])c3ccc(O)cc32)cc1` [2-methyl-1-(4-methylphenyl)-3-nitro-indol-6-ol], the concentration for a half-maximal effect (EC50) was above 300 µM.

Compound `CCSc1nc(-c2ccccc2)c(C#N)c(=O)[nH]1` [2-ethylsulfanyl-4-oxidanylidene-6-phenyl-1H-pyrimidine-5-carbonitrile] had an EC50 above 300 µM.

The compound `COc1cccc(-c2nnc3sc(C4CCCCC4)nn23)c1` [6-cyclohexyl-3-(3-methoxyphenyl)-[1,2,4]triazolo[3,4-b][1,3,4]thiadiazole] returned an EC50 of 16.3 µM.

Turning to `COc1ccccc1-c1coc2c(CN(C)C)c(O)ccc2c1=O` [8-[(dimethylamino)methyl]-7-hydroxy-3-(2-methoxyphenyl)chromen-4-one], the EC50 was above 300 µM.

`Cn1c(SCc2nc(-c3ccccc3)no2)nnc1-c1ccco1` gave a half-maximal effective concentration (EC50) above 300 µM.

For `Cn1c(=O)[nH]c(=O)c2c1nc1n2CCCS1`, the EC50 was above 300 µM.

`O=C(Nc1cccnc1)Nc1ccccn1` [MLS000104821] gave an EC50 above 300 µM.

Turning to `Nc1nonc1-n1nnc(C(=O)NN=Cc2ccccc2F)c1-c1cccs1`, the EC50 was 14.4 µM.

Turning to `Cc1ccnc(NC(=O)Cn2cc([N+](=O)[O-])cn2)c1` [SMR000307337], the EC50 was above 300 µM.

The compound `C=CCN1C(=O)NC(=O)/C(=C/c2ccc(OCC(=O)Nc3ccc(C)cc3)cc2)C1=O` [SMR000673044] had an EC50 above 300 µM.

For the compound `COc1cccc2cc(CC(=O)c3ccccc3)c(=O)oc12` [8-methoxy-3-(2-oxo-2-phenylethyl)-2H-chromen-2-one], the EC50 is above 300 µM.

`NC(=S)NN=Cc1cn(CCC(=O)O)nc1-c1cccc(Br)c1` [3-[3-(3-bromophenyl)-4-[(carbamothioylhydrazinylidene)methyl]-1-pyrazolyl]propanoic acid] gave an EC50 above 300 µM.

For `COc1ccc(C(=O)c2sc(Nc3ccccc3)nc2N)cc1OC` [MLS001202046], the response was half-maximal at 0.358 µM (EC50).

As to `CC1Cc2cc(S(=O)(=O)N3CCN(c4ccccc4)CC3)ccc2N1C(=O)C1CC1` (centres undefined), the EC50 was above 300 µM.

Turning to `O=C(c1cccs1)c1coc2ccc(O)c(CN3CCOCC3)c12` [[4-(morpholin-4-ylmethyl)-5-oxidanyl-1-benzofuran-3-yl]-thiophen-2-yl-methanone], the EC50 was above 300 µM.

Regarding `O=Cc1ccc(N2CCCC2)c([N+](=O)[O-])c1` [SMR000383989], the EC50 was above 300 µM.

The values are drawn from BindingDB's records for doi:10.7270/Q2TX3CTT (Broad Institute, 2010).
